# Earlier results, collected in patent publication US10466148B2, “Use of platinum wire electrode and synthetic fiber for flow assisted electro-enhanced solid phase microextraction” (KING FAHD UNIVERSITY OF PETROLEUM AND MINERALS, priority 2015, dated 2019).
# Legend:
# [1] = not given; remark: listed apart in the source
# [2] = not given; remark: listed apart in the source
# [3] = not given; remark: listed apart in the source
Structure (SMILES),Diffusion coefficient in water [cm^2 s^−1],Diffusion coefficient in air [1] [cm^2 s^−1],Henry's law constant at 20° C. [2],Vapor pressure at 20-25° C. [3] [mmHg]
"Brc1ccc(Oc2ccccc2)cc1 [BPPE, 4-bromophenyl phenyl ether]",6.27E−06,0.047,0.009,0.0005
"Clc1ccc(Oc2ccccc2)cc1 [CPPE, 4-chlorophenyl phenyl ether]",6.18E−06,0.048,0.012,0.0016
